Reference: patent US11944094B1, “Seed germination activator for control of broomrape” (KING FAISAL UNIVERSITY, priority 2023, dated 2024)

System: broomrape
Test: Field experiment: reduction of broomrape biomass by BIP in irrigation water before planting host crops
Assay type: in vivo, Orobanche
Description: Testing was performed to determine the effect of BIP in different plant species as host crops (faba bean, tomato, and potato), soil type (sand soil and light clay soil), application time (late October and late February), and different climactic regions (Al Behera governate and Al Noubareia), using various concentrations of the substrate (100-500 ppm) to increase the inhibitory effect. […] Thus, BIP, when formulated and administered at 100-500 ppm with the irrigation water is an effective bio agent for controlling broomrape.

CCCCOC(=O)c1ccccc1C(=O)OCC(C)C [BIP, butylisobutylphthalate]
reduced broomrape biomass (300 ppm in irrigation water 8-10 days before cultivation, light clay soil for faba beans and potato, sand soil for faba bean, 20th of October): 65%
reduction in broomrape biomass (400 ppm in irrigation water 10 days before planting, sand soil, 15th of February, tomato plants): 69%
increase of inhibition effect relative to the activity observed at 400 ppm (BIP 500 ppm versus 400 ppm): ≤ 10%
% Reduction Broomrape Biomass (Faba bean (Misr-3), cultivation October, light clay soil, BIP 300 ppm): 65.0%
% Reduction Broomrape Biomass (Faba bean (Misr-3), cultivation October, sandy soil, BIP 300 ppm): 59.8%
% Reduction Broomrape Biomass (Potato (Yarla), cultivation September, light clay soil, BIP 325 ppm): 62.3%
% Reduction Broomrape Biomass (Tomato (Star Valley), cultivation February, sandy soil, BIP 400 ppm): 71.8%
reduction of broomrape (lower concentrations of BIP (100-200 ppm)): 15%-18%
